Values after ≈ are worked out from the molar mass of the structure shown. Active and inactive are the calls of the source. No cut-off for these calls is given here.
Key:
[1] = molecular target: T1, Protein cereblon/Dual specificity tyrosine-phosphorylation-regulated kinase 1B (Homo sapiens) (UniProt Q9Y463+Q96SW2); experiment: PROTAC activity at CRBN/DYRK1B in Flp-In-T-REx-293 cells overexpressing GFP-DYRK1B assessed as initial rate of degradation at 1 uM measured upto 6 hrs by fluorescence based phase contrast microscopy analysis; assay type: cell-based
HEK293 = experiment: Downregulation of DYRK1B mRNA expression in HEK293 cells at 100 nM measured after 24 hrs by qRT-PCR analysis; assay type: functional, cell-based; settings: Homo sapiens
[2] = molecular target: T1, Protein cereblon/Dual specificity tyrosine-phosphorylation-regulated kinase 1B (Homo sapiens); experiment: PROTAC activity at CRBN/DYRK1B in HEK293 cells assessed as induction of degradation of DYRK1B at 100 nM pretreated with leucettine-41 followed by compound addition and incubated for 8 hrs; assay type: cell-based
[3] = molecular target: T1, Protein cereblon/Dual specificity tyrosine-phosphorylation-regulated kinase 1B (Homo sapiens); experiment: PROTAC activity at CRBN/DYRK1B in Flp-In-T-REx-293 cells overexpressing GFP-DYRK1B assessed as half life at 1 uM measured upto 6 hrs by fluorescence based phase contrast microscopy analysis; assay type: cell-based
[4] = molecular target: T2, Protein cereblon/Dual specificity tyrosine-phosphorylation-regulated kinase 1A (Homo sapiens, UniProt Q13627+Q96SW2); experiment: PROTAC activity at CRBN/DYRK1A in HEK293 cells assessed as induction of degradation of DYRK1A at 1 to 10000 nM incubated for 24 hrs in presence of leucettine-41; assay type: cell-based; settings: dose 1-10000 nM
[5] = molecular target: T1, Protein cereblon/Dual specificity tyrosine-phosphorylation-regulated kinase 1B (Homo sapiens); experiment: PROTAC activity at CRBN/DYRK1B in Flp-In-T-REx-293 cells overexpressing GFP-DYRK1B assessed as maximal reduction in GFP fluorescence at 1 uM measured upto 6 hrs by fluorescence based phase contrast microscopy analysis relative to control; assay type: cell-based
[6] = molecular target: T2, Protein cereblon/Dual specificity tyrosine-phosphorylation-regulated kinase 1A; experiment: PROTAC activity at CRBN/HibiT-tagged DYRK1A in Flp-In-T-REx-293 cells assessed as induction of degradation of DYRK1A at 100 to 300 nM by measured after 24 hrs by NanoBiT luciferase assay; assay type: cell-based; settings: dose 100-300 nM
SH-SY5Y = experiment: Cytotoxicity against human SH-SY5Y cells assessed as reduction in cell viability at 100 nM measured upto 96 hrs by real-time cell analysis; assay type: functional, cell-based
[7] = molecular target: T1, Protein cereblon/Dual specificity tyrosine-phosphorylation-regulated kinase 1B (Homo sapiens); experiment: PROTAC activity at CRBN/DYRK1B in HEK293 cells assessed as induction of degradation of DYRK1B at 100 nM pretreated with CB-5083 followed by compound addition and incubated for 8 hrs; assay type: cell-based
[8] = Half life in mouse at 1 mg/kg, iv administered as single dose; assay type: ADME, organism-based; settings: in vivo
[9] = Half life in mouse blood; assay type: ADME, tissue-based
[10] = molecular target: T2, Protein cereblon/Dual specificity tyrosine-phosphorylation-regulated kinase 1A; experiment: PROTAC activity at CRBN/DYRK1A in HEK293 cells assessed as induction of degradation of DYRK1A by measuring maximum efficacy at 1 to 10000 nM incubated for 24 hrs relative to control; assay type: cell-based; settings: dose 1-10000 nM
[11] = molecular target: T2, Protein cereblon/Dual specificity tyrosine-phosphorylation-regulated kinase 1A; experiment: PROTAC activity at CRBN/DYRK1A in human A549 cells assessed as induction of degradation of DYRK1A at 100 nM incubated for 24 hrs; assay type: cell-based
[12] = Metabolic stability in mouse liver microsomes assessed as half life; assay type: ADME, Microsome
[13] = molecular target: T2, Protein cereblon/Dual specificity tyrosine-phosphorylation-regulated kinase 1A; experiment: PROTAC activity at CRBN/HibiT-tagged DYRK1A in HEK293 cells assessed as induction of degradation of DYRK1A at 1 uM measured after 24 hrs by Western blot analysis; assay type: cell-based
[14] = molecular target: T2, Protein cereblon/Dual specificity tyrosine-phosphorylation-regulated kinase 1A; experiment: PROTAC activity at CRBN/DYRK1A in Flp-In-T-REx-293 cells overexpressing GFP-DYRK1A assessed as half life at 1 uM measured upto 6 hrs by fluorescence based phase contrast microscopy analysis; assay type: cell-based
[15] = AUC infinity in mouse at 10 mg/kg, po administered as single dose; assay type: ADME, organism-based; settings: in vivo
[16] = MRT in mouse at 10 mg/kg, ip administered as single dose; assay type: ADME, organism-based; settings: in vivo
[17] = molecular target: T2, Protein cereblon/Dual specificity tyrosine-phosphorylation-regulated kinase 1A; experiment: PROTAC activity at CRBN/HibiT-tagged DYRK1A in Flp-In-T-REx-293 cells assessed as induction of degradation of DYRK1A by measuring maximum efficacy at 1 uM measured after 24 hrs by NanoBiT luciferase assay relative to control; assay type: cell-based
[18] = molecular target: T2, Protein cereblon/Dual specificity tyrosine-phosphorylation-regulated kinase 1A; experiment: PROTAC activity at CRBN/DYRK1A in HEK293 cells assessed as induction of degradation of DYRK1A at 1 to 10000 nM incubated for 24 hrs in presence of 4-(3-(2-fluoro-4-(4-methylpiperazin-1-yl)phenyl)-2-methyl-3H-imidazo[4,5-b]pyridin-5-yl)pyridin-2-amine; assay type: cell-based; settings: dose 1-10000 nM
[19] = Half life in mouse at 10 mg/kg, ip administered as single dose; assay type: ADME, organism-based; settings: in vivo
[20] = molecular target: T2, Protein cereblon/Dual specificity tyrosine-phosphorylation-regulated kinase 1A; experiment: Competitive binding affinity to CRBN/DYRK1A (unknown origin) assessed as dissociation constant; assay type: protein assay
[21] = Clearance in mouse at 1 mg/kg, iv administered as single dose; assay type: ADME, organism-based; settings: in vivo
[22] = molecular target: T2, Protein cereblon/Dual specificity tyrosine-phosphorylation-regulated kinase 1A; experiment: PROTAC activity at CRBN/DYRK1A in human SH-SY5Y cells assessed as induction of degradation of DYRK1A at 100 nM incubated for 24 hrs; assay type: cell-based
[23] = Solubility of the compound in FaSSIF buffer; assay type: physicochemical
[24] = molecular target: T1, Protein cereblon/Dual specificity tyrosine-phosphorylation-regulated kinase 1B (Homo sapiens); experiment: PROTAC activity at CRBN/DYRK1B in HEK293 cells assessed as induction of degradation of DYRK1B by measuring maximum efficacy at 1 to 10000 nM incubated for 24 hrs relative to control; assay type: cell-based; settings: dose 1-10000 nM
[25] = molecular target: T1, Protein cereblon/Dual specificity tyrosine-phosphorylation-regulated kinase 1B (Homo sapiens); experiment: PROTAC activity at CRBN/DYRK1B in HEK293 cells assessed as induction of degradation of DYRK1B at 100 nM measured within 8 hrs by Western blot analysis; assay type: cell-based
[26] = Permeability of the compound in human Caco-2 cells across basolateral side to apical side; assay type: ADME, cell-based; settings: read-out: permeability
[27] = molecular target: T2, Protein cereblon/Dual specificity tyrosine-phosphorylation-regulated kinase 1A; experiment: PROTAC activity at CRBN/DYRK1A in HEK293 cells assessed as induction of degradation of DYRK1A at 100 nM pretreated with MLN4924 followed by compound addition and incubated for 8 hrs; assay type: cell-based
[28] = Tmax in mouse at 10 mg/kg, po administered as single dose; assay type: ADME, organism-based; settings: in vivo
[29] = molecular target: T1, Protein cereblon/Dual specificity tyrosine-phosphorylation-regulated kinase 1B (Homo sapiens); experiment: PROTAC activity at CRBN/DYRK1B in SH-SY5Y cells assessed as induction of degradation of DYRK1B at 100 nM incubated for 24 hrs; assay type: cell-based
[30] = molecular target: T2, Protein cereblon/Dual specificity tyrosine-phosphorylation-regulated kinase 1A; experiment: PROTAC activity at CRBN/DYRK1A in human OVCAR-3 cells assessed as induction of degradation of DYRK1A at 100 nM incubated for 8 hrs; assay type: cell-based
[31] = Half life in mouse plasma; assay type: ADME, cell-free
[32] = molecular target: T2, Protein cereblon/Dual specificity tyrosine-phosphorylation-regulated kinase 1A; experiment: PROTAC activity at CRBN/DYRK1A in human A549 cells assessed as induction of degradation of DYRK1A at 100 nM incubated for 8 hrs relative to control; assay type: cell-based
[33] = molecular target: Protein cereblon/Dual specificity tyrosine-phosphorylation-regulated kinase 1B (Homo sapiens, UniProt Q96SW2+Q9Y463); experiment: Competitive binding affinity to CRBN/DYRK1B (unknown origin) assessed as dissociation constant; assay type: protein assay

Cc1nc2ccc(-c3ccnc(N)c3)nc2n1-c1ccc(N2CCN(CC#Cc3ccc(N4CCC(C(=O)N5CCC(n6cc(CNc7cccc8c7C(=O)N(C7CCC(=O)NC7=O)C8=O)cn6)CC5)CC4)nc3)CC2)c(F)c1 (stereo not given)
Activity [1]: 1.16 h⁻¹ | Activity (HEK293): inactive | Activity [2]: inactive | T1/2 [3]: 0.6 h | Activity [4]: inactive | Emax [5]: 86% | Activity [6]: Active | Activity (SH-SY5Y): Active | Activity [7]: inactive | half-life [8]: 3.33 h | half-life [9]: 15.2 h | Emax [10]: 90% | Activity [11]: Active | half-life [12]: 7.38 h | Activity [13]: Active | T1/2 [14]: 0.95 h | AUC(0-inf) [15]: 64 ng·h/mL | MRT [16]: 5.77 h | Emax [17]: 84% | Activity [18]: inactive | half-life [19]: 4.75 h | Kd [20]: 6.3 nM | clearance [21]: 7.1 mL/min/kg | Activity [22]: Active | solubility [23]: 0.16 µM (≈ 0.17 µg/mL) | Emax [24]: 50% | Activity [25]: Active | Papp B→A [26]: < 0.243 ×10⁻⁶ cm/s | Activity [27]: inactive | Tmax [28]: 0.5 h | Activity [29]: Active | Activity [30]: inactive | half-life [31]: 6.97 h | Activity [32]: 100% | Kd [33]: 16 nM
